Reference: ChEMBL document CHEMBL4507290 (2021)

What was measured:
[1] = tested on: Phosphatidylinositol 4,5-bisphosphate 3-kinase catalytic subunit alpha isoform (Homo sapiens), P42336 [C420R]; conditions: Compound concentration 1000.0 nM
[2] = target: Alpha-2B adrenergic receptor (Homo sapiens) (UniProt P18089); conditions: Compound concentration 10.0 uM
[3] = target: Dual specificity tyrosine-phosphorylation-regulated kinase 2 (Homo sapiens) (UniProt Q92630); conditions: Compound concentration 1000.0 nM
[4] = target: Activin receptor type-1 (Homo sapiens) (UniProt Q04771); conditions: Compound concentration 1000.0 nM
[5] = target: Casein kinase I isoform delta (Homo sapiens) (UniProt P48730); conditions: Compound concentration 1000.0 nM
[6] = target: Fibroblast growth factor receptor 2 (Homo sapiens) (UniProt P21802); conditions: Compound concentration 1000.0 nM
[7] = target: Phosphatidylinositol 3-kinase C2 domain-containing subunit gamma (Homo sapiens) (UniProt O75747); conditions: Compound concentration 1000.0 nM
[8] = target: Mitogen-activated protein kinase kinase kinase 20 (Homo sapiens) (UniProt Q9NYL2); conditions: Compound concentration 1000.0 nM
[9] = target: Serine/threonine-protein kinase RIO2 (Homo sapiens) (UniProt Q9BVS4); conditions: Compound concentration 1000.0 nM
[10] = target: Cyclin-dependent kinase 8 (Homo sapiens) (UniProt P49336); conditions: Compound concentration 1000.0 nM
[11] = target: Cyclin-dependent kinase 11B (Homo sapiens) (UniProt P21127); conditions: Compound concentration 1000.0 nM
[12] = tested on: Epidermal growth factor receptor (Homo sapiens), P00533 [UNDEFINED MUTATION]; conditions: Compound concentration 1000.0 nM
[13] = target: Dual specificity protein kinase CLK1 (Homo sapiens) (UniProt P49759); conditions: Compound concentration 1000.0 nM
[14] = tested on: Proto-oncogene tyrosine-protein kinase receptor Ret (Homo sapiens), P07949 [V804M]; conditions: Compound concentration 1000.0 nM
[15] = target: Serine/threonine-protein kinase PAK 6 (Homo sapiens) (UniProt Q9NQU5); conditions: Compound concentration 1000.0 nM
[16] = target: Serine/threonine-protein kinase 36 (Homo sapiens) (UniProt Q9NRP7); conditions: Compound concentration 1000.0 nM
[17] = target: Cyclin-dependent kinase 4 (Homo sapiens) (UniProt P11802); conditions: Compound concentration 1000.0 nM
[18] = target: Mitogen-activated protein kinase kinase kinase 11 (Homo sapiens) (UniProt Q16584); conditions: Compound concentration 1000.0 nM
[19] = target: Mitogen-activated protein kinase 9 (Homo sapiens) (UniProt P45984); conditions: Compound concentration 1000.0 nM
[20] = target: Cyclin-dependent kinase 13 (Homo sapiens) (UniProt Q14004); conditions: Compound concentration 1000.0 nM
[21] = target: 5-hydroxytryptamine receptor 5A (Homo sapiens) (UniProt P47898); conditions: Compound concentration 10.0 uM
[22] = target: Phosphatidylinositol 5-phosphate 4-kinase type-2 beta (Homo sapiens) (UniProt P78356); conditions: Compound concentration 1000.0 nM
[23] = target: Protein kinase C iota type (Homo sapiens) (UniProt P41743); conditions: Compound concentration 1000.0 nM
[24] = target: GABA-A receptor; anion channel (Rattus norvegicus) (UniProt O09028+P15431+P18506+P18508+P19969+P20236+P23574+P23576+P28471+P28473+P30191+P62813+P63079+P63138+Q91ZM7+Q9ES14); conditions: Compound concentration 10.0 uM
[25] = target: Serine/threonine-protein kinase PRP4 homolog (Homo sapiens) (UniProt Q13523); conditions: Compound concentration 1000.0 nM
[26] = target: Platelet-derived growth factor receptor alpha (Homo sapiens) (UniProt P16234); conditions: Compound concentration 1000.0 nM
[27] = target: Tyrosine-protein kinase SYK (Homo sapiens) (UniProt P43405); conditions: Compound concentration 1000.0 nM
[28] = target: Mitogen-activated protein kinase 4 (Homo sapiens) (UniProt P31152); conditions: Compound concentration 1000.0 nM
[29] = target: Serine/threonine-protein kinase ULK3 (Homo sapiens) (UniProt Q6PHR2); conditions: Compound concentration 1000.0 nM
[30] = target: Mu-type opioid receptor (Homo sapiens) (UniProt P35372); conditions: Compound concentration 10.0 uM
[31] = target: Cyclin-dependent kinase 4 (Homo sapiens) (UniProt P11802); conditions: Compound concentration 1000.0 nM; remark: listed apart in the source
[32] = target: Serine/threonine-protein kinase 33 (Homo sapiens) (UniProt Q9BYT3); conditions: Compound concentration 1000.0 nM
[33] = target: Activin receptor type-1-like (Homo sapiens) (UniProt P37023); conditions: Compound concentration 1000.0 nM
[34] = target: Phosphatidylinositol 5-phosphate 4-kinase type-2 gamma (Homo sapiens) (UniProt Q8TBX8); conditions: Compound concentration 1000.0 nM
[35] = target: BDNF/NT-3 growth factors receptor (Homo sapiens) (UniProt Q16620); conditions: Compound concentration 1000.0 nM
[36] = target: Cyclin-dependent kinase 14 (Homo sapiens) (UniProt O94921); conditions: Compound concentration 1000.0 nM
[37] = target: Ephrin type-A receptor 1 (Homo sapiens) (UniProt P21709); conditions: Compound concentration 1000.0 nM
[38] = target: Serine/threonine-protein kinase RIO1 (Homo sapiens) (UniProt Q9BRS2); conditions: Compound concentration 1000.0 nM
[39] = target: Macrophage colony-stimulating factor 1 receptor (Homo sapiens) (UniProt P07333); conditions: Compound concentration 1000.0 nM
[40] = target: Mitotic checkpoint serine/threonine-protein kinase BUB1 (Homo sapiens) (UniProt O43683); conditions: Compound concentration 1000.0 nM
[41] = target: Tyrosine-protein kinase receptor UFO (Homo sapiens) (UniProt P30530); conditions: Compound concentration 1000.0 nM
[42] = tested on: Proto-oncogene tyrosine-protein kinase receptor Ret (Homo sapiens), P07949 [M918T]; conditions: Compound concentration 1000.0 nM
[43] = target: Casein kinase I isoform gamma-1 (Homo sapiens) (UniProt Q9HCP0); conditions: Compound concentration 1000.0 nM
[44] = target: NT-3 growth factor receptor (Homo sapiens) (UniProt Q16288); conditions: Compound concentration 1000.0 nM

Sequence of Cyclin-dependent kinase 4 (Homo sapiens) (P11802 whole entry): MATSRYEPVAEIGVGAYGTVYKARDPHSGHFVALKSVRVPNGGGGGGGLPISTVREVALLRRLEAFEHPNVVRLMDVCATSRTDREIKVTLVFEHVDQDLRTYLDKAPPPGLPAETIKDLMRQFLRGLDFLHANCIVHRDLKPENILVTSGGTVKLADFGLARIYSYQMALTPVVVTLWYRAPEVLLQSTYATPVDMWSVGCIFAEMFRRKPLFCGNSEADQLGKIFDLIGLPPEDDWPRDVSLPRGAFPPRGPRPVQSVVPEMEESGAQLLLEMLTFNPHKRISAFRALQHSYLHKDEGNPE
Sequence of Cyclin-dependent kinase 14 (Homo sapiens) (O94921 whole entry): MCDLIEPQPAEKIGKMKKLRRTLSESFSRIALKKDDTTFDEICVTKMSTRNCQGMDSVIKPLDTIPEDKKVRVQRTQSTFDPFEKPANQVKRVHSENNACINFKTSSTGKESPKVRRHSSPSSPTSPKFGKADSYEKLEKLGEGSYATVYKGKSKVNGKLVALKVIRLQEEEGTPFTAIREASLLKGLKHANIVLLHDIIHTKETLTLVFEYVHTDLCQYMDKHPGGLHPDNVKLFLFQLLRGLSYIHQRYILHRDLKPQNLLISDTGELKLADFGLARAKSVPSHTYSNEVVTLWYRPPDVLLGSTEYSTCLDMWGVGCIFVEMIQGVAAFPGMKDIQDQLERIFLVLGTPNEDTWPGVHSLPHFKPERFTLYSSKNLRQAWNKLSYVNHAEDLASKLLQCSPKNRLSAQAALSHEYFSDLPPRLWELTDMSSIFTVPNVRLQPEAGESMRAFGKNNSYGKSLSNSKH
Sequence of Fibroblast growth factor receptor 2 (Homo sapiens) (P21802 22-821 limits assumed): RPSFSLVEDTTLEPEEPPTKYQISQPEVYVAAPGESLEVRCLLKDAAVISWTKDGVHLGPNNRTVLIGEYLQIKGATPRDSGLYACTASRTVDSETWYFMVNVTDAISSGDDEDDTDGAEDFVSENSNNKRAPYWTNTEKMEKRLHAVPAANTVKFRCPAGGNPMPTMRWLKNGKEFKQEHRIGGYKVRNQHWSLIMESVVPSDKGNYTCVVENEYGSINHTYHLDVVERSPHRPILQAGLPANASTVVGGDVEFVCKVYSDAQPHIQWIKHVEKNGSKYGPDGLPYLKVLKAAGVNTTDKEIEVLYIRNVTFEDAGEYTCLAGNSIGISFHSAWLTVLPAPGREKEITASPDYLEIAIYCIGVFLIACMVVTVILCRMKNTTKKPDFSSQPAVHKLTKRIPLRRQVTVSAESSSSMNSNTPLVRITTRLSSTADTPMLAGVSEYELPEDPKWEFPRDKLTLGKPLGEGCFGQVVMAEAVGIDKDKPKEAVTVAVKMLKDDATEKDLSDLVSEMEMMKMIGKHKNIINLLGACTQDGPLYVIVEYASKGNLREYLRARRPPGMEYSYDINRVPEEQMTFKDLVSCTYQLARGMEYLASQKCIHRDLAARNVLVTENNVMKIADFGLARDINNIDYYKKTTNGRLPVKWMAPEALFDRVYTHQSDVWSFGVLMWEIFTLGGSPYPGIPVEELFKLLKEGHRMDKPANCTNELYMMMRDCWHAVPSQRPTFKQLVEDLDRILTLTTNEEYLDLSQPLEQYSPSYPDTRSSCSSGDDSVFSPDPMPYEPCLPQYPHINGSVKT
Sequence of Serine/threonine-protein kinase 33 (Homo sapiens) (Q9BYT3 whole entry, looked up): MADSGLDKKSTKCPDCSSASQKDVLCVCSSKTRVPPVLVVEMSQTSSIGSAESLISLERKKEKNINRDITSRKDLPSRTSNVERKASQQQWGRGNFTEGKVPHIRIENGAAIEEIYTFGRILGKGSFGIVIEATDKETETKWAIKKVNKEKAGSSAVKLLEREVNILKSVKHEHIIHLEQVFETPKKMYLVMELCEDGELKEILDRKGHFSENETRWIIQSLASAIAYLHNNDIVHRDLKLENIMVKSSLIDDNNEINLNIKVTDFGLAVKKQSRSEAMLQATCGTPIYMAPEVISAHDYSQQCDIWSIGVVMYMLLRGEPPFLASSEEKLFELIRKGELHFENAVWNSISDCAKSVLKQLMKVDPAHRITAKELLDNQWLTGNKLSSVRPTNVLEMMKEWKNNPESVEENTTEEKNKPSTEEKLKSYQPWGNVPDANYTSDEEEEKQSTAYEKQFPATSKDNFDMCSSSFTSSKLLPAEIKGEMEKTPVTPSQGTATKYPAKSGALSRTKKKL
Sequence of Dual specificity tyrosine-phosphorylation-regulated kinase 2 (Homo sapiens) (Q92630 whole entry): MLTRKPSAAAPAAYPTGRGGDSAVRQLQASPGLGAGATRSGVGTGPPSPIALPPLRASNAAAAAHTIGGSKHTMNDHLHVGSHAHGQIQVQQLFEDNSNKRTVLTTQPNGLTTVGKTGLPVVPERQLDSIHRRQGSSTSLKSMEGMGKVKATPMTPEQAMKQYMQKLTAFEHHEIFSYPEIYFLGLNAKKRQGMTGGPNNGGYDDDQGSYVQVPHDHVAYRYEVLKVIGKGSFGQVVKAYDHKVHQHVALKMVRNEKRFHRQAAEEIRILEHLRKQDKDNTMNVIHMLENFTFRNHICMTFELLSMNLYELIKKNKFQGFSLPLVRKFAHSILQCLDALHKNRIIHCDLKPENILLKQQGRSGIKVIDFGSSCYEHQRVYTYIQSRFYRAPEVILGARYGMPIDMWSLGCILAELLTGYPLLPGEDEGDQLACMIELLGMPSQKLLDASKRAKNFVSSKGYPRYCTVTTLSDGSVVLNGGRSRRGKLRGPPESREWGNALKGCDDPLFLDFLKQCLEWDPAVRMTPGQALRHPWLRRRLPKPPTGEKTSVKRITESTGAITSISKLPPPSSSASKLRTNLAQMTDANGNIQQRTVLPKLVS
Sequence of Proto-oncogene tyrosine-protein kinase receptor Ret (Homo sapiens), P07949 [V804M] (P07949 whole entry V804M): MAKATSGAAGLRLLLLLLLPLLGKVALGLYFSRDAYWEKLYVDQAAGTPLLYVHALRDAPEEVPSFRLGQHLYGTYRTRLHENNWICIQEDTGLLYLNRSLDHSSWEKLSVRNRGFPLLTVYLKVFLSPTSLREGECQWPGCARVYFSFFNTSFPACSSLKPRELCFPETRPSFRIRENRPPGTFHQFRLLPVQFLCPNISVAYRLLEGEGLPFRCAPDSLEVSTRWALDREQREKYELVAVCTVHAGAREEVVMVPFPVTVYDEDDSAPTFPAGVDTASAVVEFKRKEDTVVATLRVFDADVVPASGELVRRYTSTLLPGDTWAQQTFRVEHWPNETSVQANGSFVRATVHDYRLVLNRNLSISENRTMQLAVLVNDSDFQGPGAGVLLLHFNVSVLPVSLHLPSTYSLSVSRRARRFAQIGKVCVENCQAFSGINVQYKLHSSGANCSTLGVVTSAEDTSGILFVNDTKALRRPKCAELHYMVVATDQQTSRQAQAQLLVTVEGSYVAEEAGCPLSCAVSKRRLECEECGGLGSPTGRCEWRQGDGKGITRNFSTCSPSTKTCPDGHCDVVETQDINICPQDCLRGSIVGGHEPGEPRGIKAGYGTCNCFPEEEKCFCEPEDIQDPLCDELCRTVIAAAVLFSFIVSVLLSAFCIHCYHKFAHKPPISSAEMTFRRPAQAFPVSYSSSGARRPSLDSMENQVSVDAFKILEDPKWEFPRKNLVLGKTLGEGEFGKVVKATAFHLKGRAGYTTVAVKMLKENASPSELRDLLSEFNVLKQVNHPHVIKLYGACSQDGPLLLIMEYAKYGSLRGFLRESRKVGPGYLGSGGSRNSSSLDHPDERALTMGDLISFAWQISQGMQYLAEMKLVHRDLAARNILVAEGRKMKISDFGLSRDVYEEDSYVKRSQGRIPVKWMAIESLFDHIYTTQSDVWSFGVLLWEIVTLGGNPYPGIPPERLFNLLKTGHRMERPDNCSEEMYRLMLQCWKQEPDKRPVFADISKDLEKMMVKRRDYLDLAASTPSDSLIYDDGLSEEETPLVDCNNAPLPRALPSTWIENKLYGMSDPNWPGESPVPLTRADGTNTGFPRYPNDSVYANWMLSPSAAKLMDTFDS
Sequence of Mitotic checkpoint serine/threonine-protein kinase BUB1 (Homo sapiens) (O43683 whole entry, looked up): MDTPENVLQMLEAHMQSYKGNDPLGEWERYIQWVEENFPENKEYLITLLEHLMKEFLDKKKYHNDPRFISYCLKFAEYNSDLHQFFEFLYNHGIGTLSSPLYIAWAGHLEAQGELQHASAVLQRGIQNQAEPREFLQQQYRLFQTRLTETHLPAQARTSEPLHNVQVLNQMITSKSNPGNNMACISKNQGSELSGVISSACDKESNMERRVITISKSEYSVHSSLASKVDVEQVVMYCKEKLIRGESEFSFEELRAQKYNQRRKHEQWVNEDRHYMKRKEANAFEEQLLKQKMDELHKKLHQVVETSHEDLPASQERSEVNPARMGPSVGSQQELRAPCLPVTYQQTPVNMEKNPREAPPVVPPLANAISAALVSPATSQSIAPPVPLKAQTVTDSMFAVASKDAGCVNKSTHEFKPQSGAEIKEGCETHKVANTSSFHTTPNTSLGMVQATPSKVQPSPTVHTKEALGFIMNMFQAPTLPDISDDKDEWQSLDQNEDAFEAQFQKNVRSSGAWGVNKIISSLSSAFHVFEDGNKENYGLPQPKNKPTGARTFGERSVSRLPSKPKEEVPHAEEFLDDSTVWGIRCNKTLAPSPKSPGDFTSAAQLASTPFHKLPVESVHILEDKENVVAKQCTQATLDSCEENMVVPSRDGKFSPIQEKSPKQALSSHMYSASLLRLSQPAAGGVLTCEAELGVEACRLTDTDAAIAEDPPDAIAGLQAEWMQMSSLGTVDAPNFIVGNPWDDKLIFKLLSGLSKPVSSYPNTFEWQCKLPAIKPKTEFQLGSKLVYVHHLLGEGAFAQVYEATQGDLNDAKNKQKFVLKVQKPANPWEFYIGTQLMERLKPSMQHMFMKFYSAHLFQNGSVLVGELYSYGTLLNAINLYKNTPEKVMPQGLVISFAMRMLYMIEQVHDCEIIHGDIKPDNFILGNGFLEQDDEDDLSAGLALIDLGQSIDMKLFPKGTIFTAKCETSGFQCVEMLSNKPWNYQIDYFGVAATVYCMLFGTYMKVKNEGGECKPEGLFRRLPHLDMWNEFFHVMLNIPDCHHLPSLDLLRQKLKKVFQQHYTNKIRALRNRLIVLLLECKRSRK
Sequence of Proto-oncogene tyrosine-protein kinase receptor Ret (Homo sapiens), P07949 [M918T] (P07949 whole entry M918T, canonical isoform): as the sequence (P07949 whole entry V804M) above, with M804V, M918T counted along it

CN([C@@H]1CCc2c(CC(=O)O)c3cc(S(C)(=O)=O)ccc3n2C1)S(=O)(=O)c1ccc(F)cc1
inactive: residual activity [1] 98% | inhibition [2] -2.39% | residual activity [3] 94% | residual activity [4] 90% | residual activity [5] 100% | residual activity [6] 89% | residual activity [7] 82% | residual activity [8] 80% | residual activity [9] 96% | residual activity [10] 100% | residual activity [11] 100% | residual activity [12] 90% | residual activity [13] 100% | residual activity [14] 100% | residual activity [15] 100% | residual activity [16] 98% | residual activity [17] 91% | residual activity [18] 100% | residual activity [19] 100% | residual activity [20] 86% | inhibition [21] -1.56% | residual activity [22] 59% | residual activity [23] 100% | inhibition [24] 45% | residual activity [25] 100% | residual activity [26] 100% | residual activity [27] 100% | residual activity [28] 100% | residual activity [29] 79% | inhibition [30] 7.34% | residual activity [31] 90% | residual activity [32] 99% | residual activity [33] 100% | residual activity [34] 100% | residual activity [35] 100% | residual activity [36] 100% | residual activity [37] 88% | residual activity [38] 100% | residual activity [39] 100% | residual activity [40] 86% | residual activity [41] 100% | residual activity [42] 100% | residual activity [43] 91% | residual activity [44] 100%

CN([C@@H]1CCc2c(CC(=O)O)c3ccccc3n2C1)S(=O)(=O)c1ccc(F)cc1 [MK-7246]
inactive: residual activity [1] 100% | inhibition [2] 12.7% | residual activity [3] 95% | residual activity [4] 100% | residual activity [5] 100% | residual activity [6] 80% | residual activity [7] 95% | residual activity [8] 99% | residual activity [9] 90% | residual activity [10] 100% | residual activity [11] 100% | residual activity [12] 100% | residual activity [13] 100% | residual activity [14] 98% | residual activity [15] 100% | residual activity [16] 100% | residual activity [17] 99% | residual activity [18] 100% | residual activity [19] 98% | residual activity [20] 95% | inhibition [21] -1.36% | residual activity [22] 80% | residual activity [23] 100% | inhibition [24] 27.7% | residual activity [25] 99% | residual activity [26] 100% | residual activity [27] 100% | residual activity [28] 100% | residual activity [29] 80% | inhibition [30] 1.33% | residual activity [31] 87% | residual activity [32] 100% | residual activity [33] 88% | residual activity [34] 100% | residual activity [35] 100% | residual activity [36] 100% | residual activity [37] 100% | residual activity [38] 100% | residual activity [39] 100% | residual activity [40] 79% | residual activity [41] 100% | residual activity [42] 97% | residual activity [43] 100% | residual activity [44] 100%
